Source: patent US20050180935A1, “Deodorant cosmetic composition comprising a combination of zinc gluconate and an antiperspirant aluminum salt” (priority 2003, published 2005)

Assay: deodorant efficacy test: odor intensity of incubated sweat rated by expert panel
Set-up: species or system human
Conditions: 24 h at 37° C, vs control sweat sample
Experimental: Collections of underarm sweat were taken in a sauna from 6 volunteers; the samples of individual sweat were stored in ice for a few hours and were initially almost odorless. They were mixed together and divided into 1 ml aliquots. The active agents were added to the aliquots, which were then incubated in an oven at 37° C. After incubation for 24 hours, a panel of experts evaluated the intensity of the odor in comparison with a control sample: 1 ml of sweat incubated without an active agent. The intensity was evaluated on a scale ranging from 0 (no odor) to 4 (very strong odor).
The results below are expressed as a percentage of variation of the intensity of the odor in comparison with the control sweat sample (mean of the percentages of variation at T24h).

**Q.** Which “% of reduction in the intensity of the odor” value (“% of reduction” below) (0.4 mg AM/ml of sweat) does the source give for `Oc1cc(Cl)ccc1Oc1ccc(Cl)cc1Cl` [(B), 2,4,4′-trichloro-2′-hydroxydiphenyl ether] here?
**A.** The value was −49%.

**Q.** For zinc gluconate [(A)], which “% of reduction” value (0.5 mg AM/ml of sweat) is on record?
**A.** Its value is −19%.

**Q.** With aluminum chlorohydrate [ACH] as the molecule, how does the “% of reduction” value (0.1 mg AM/ml of sweat) read?
**A.** Its value is −37%.

**Q.** With zinc ricinoleate [(C)] as the molecule, how does the “% of reduction” value (0.3 mg AM/ml of sweat) read?
**A.** Its value is −4%.
